Assay results from patent US9597407B2, “Targeted antimicrobial moieties” (C3 Jian, Inc., priority 2009, dated 2017).
“Also recorded” adds a separate entry of the source. Square brackets hold non-standard residues; d marks the D form. Ends that are not written are not given here. dOrn = NCCC[C@@H](N)C(=O)O; Orn = NCCC[C@H](N)C(=O)O

Test system: bacteria
Assay: Binding of targeting peptides to microorganisms (Table 3)
Details: for Target(s) (microorganism bound by the targeting peptide) / Target(s) / Target(s) (microorganisms bound by the targeting peptide): preferably 1x PBS
[1] = peptide binding in aqueous buffers varied by peptide solubility
[2] = microorganism bound by the targeting peptide, binding in aqueous buffers chosen by peptide solubility
[3] = microorganism the targeting peptide binds, binding in aqueous buffers that varied with peptide solubility
[4] = peptide binding in aqueous buffers that varied depending on peptide solubility

Substance: 1T-112 (SDNDGKLILGTSQ; Peptide with targeting and/or antimicrobial activity) [Peptide 1T-112]
- Target(s) (microorganism bound by the targeting peptide) [1]: S. gordonii

Substance: PF-223 (VKFCIECQTKLERKRR; Peptide with targeting and/or antimicrobial activity)
- Target(s) [2]: S. epidermidis; also recorded: M. luteus; also recorded: A. baumannii

Substance: Py Pf 12 ([dS]KG[Orn][dS]SGK[dOrn]ES; bridge (positions not given here); not fully specified (bridges))
- Target(s) [3]: P. fluorescens

Substance: TT-309 (EPLPLTKYDKKDTEMKKVFKEILAGKVGYEKEEE; Peptide with targeting and/or antimicrobial activity)
- Target(s) [3]: F. nucleatum

Substance: PF-214 (GHLRVCWVFSASLLTPFRSATLI; Peptide with targeting and/or antimicrobial activity)
- Target(s) [2]: S. mutans; also recorded: S. epidermidis; also recorded: M. luteus; also recorded: E. coli; also recorded: P. aeruginosa; also recorded: A. baumannii

Substance: 1T-117 (GPGVVGPAPFSRLPAHALNL; Peptide with targeting and/or antimicrobial activity) [Peptide 1T-117]
- Target(s) (microorganism bound by the targeting peptide) [1]: S. mutans

Substance: 1T-105 (GEGLPPPVLHLPPPRMSGR; Peptide with targeting and/or antimicrobial activity) [Peptide 1T-105]
- Target(s) (microorganism bound by the targeting peptide) [1]: S. epidermidis; also recorded: S. gordonii; also recorded: S. mitis; also recorded: S. mutans; also recorded: S. oralis

Substance: PF-221 (VFDNIDINF; Peptide with targeting and/or antimicrobial activity)
- Target(s) [2]: S. epidermidis; also recorded: M. luteus; also recorded: P. aeruginosa

Substance: PF-324 (HFSLL; Peptide with targeting and/or antimicrobial activity)
- Target(s) [2]: C. difficile

Substance: 1T-35 (EICLTLVFPIRGSYSEAAKFPVPIHIVEDGTVELPK; Peptide with targeting and/or antimicrobial activity) [Peptide 1T-35]
- Target(s) (microorganism bound by the targeting peptide) [1]: P. aeruginosa

Substance: PF-720 (SLDMGK; Peptide with targeting and/or antimicrobial activity)
- Target(s) (microorganism bound by the targeting peptide) [4]: S. mutans

Substance: PF-352 (RVKKIG; Peptide with targeting and/or antimicrobial activity)
- Target(s) [2]: C. jeikeium

Substance: 1T-201 (KRKHENVIVAEEMRVIKN; Peptide with targeting and/or antimicrobial activity) [Peptide 1T-201]
- Target(s) [3]: S. sanguinis

Substance: 1T-154 (YFSFLEIVGMARR; Peptide with targeting and/or antimicrobial activity) [Peptide 1T-154]
- Target(s) (microorganism bound by the targeting peptide) [1]: P. gingivalis

Substance: 1T-39 (FGFCVWMYQLLAGPPGPPA; Peptide with targeting and/or antimicrobial activity) [Peptide 1T-39]
- Target(s) (microorganism bound by the targeting peptide) [1]: S. mutans; also recorded: P. aeruginosa

Substance: PF-C034 (HPMPITVRSRKPGPLTAPSEH; Peptide with targeting and/or antimicrobial activity)
- Target(s) (microorganism bound by the targeting peptide) [4]: S. mutans; also recorded: E. coli

Substance: PF-189 (GNLTRSREAARATQ; Peptide with targeting and/or antimicrobial activity)
- Target(s) [2]: S. epidermidis and M. luteus and C. albicans and MRSA and E. faecalis and C. jejuni

Substance: 1T-68 (GGTKEIVYQRG; Peptide with targeting and/or antimicrobial activity) [Peptide 1T-68]
- Target(s) (microorganism bound by the targeting peptide) [1]: S. mutans; also recorded: S. aureus; also recorded: C. jeikeium; also recorded: C. xerosis; also recorded: C. striatum; also recorded: P. aeruginosa

Substance: 1T-65 (HARAAVGVAELPRGAAVEVELIAAVRP; Peptide with targeting and/or antimicrobial activity) [Peptide 1T-65]
- Target(s) (microorganism bound by the targeting peptide) [1]: S. mutans; also recorded: S. aureus; also recorded: S. epidermidis; also recorded: C. jeikeium; also recorded: C. xerosis; also recorded: C. striatum; also recorded: P. aeruginosa

Substance: PF-210 (EREDGCDAMPLP; Peptide with targeting and/or antimicrobial activity)
- Target(s) [2]: S. epidermidis and P. aeruginosa and C. albicans and MRSA and E. faecalis and C. jeikeium and C. jejuni

Substance: PF-162 (GIRRLHSVENLNREISHRMAGLR; Peptide with targeting and/or antimicrobial activity)
- Target(s) [2]: S. epidermidis and MRSA

Substance: PF-496 (EVTKRLVALAQQQLRG; Peptide with targeting and/or antimicrobial activity)
- Target(s) (microorganisms bound by the targeting peptide) [4]: S. mutans; also recorded: E. coli

Substance: DAANEA-GGG [BL-1]
- bacterial binding (data not shown): no bacterial binding

Substance: 1T-259 (EKLKKILLKLAVCGKAWYTL; Peptide with targeting and/or antimicrobial activity) [Peptide 1T-259]
- Target(s) [3]: F. nucleatum; also recorded: P. gingivalis; also recorded: T. denticola; also recorded: S. mitis; also recorded: S. mutans; also recorded: S. oralis; also recorded: S. sanguinis

Substance: 1T-159 (IFSLHHFALICSEMGTFAVSKRAKYKWEVL; Peptide with targeting and/or antimicrobial activity) [Peptide 1T-159]
- Target(s) (microorganism bound by the targeting peptide) [1]: P. gingivalis

Substance: 1T-84 (FRKKRYGLSILLWLNAFTNLVNSIHAFYMTLF; Peptide with targeting and/or antimicrobial activity) [Peptide 1T-84]
- Target(s) (microorganism bound by the targeting peptide) [1]: S. pneumoniae

Substance: PF-412 (TSGWLGQLEQ; Peptide with targeting and/or antimicrobial activity)
- Target(s) (microorganisms bound by the targeting peptide) [4]: M. luteus; also recorded: E. coli; also recorded: C. albicans; also recorded: C. jeikeium; also recorded: C. jejuni

Substance: PF-731 (RHKLIRLPLSESVFCFLNNPKI; Peptide with targeting and/or antimicrobial activity)
- Target(s) (microorganism bound by the targeting peptide) [4]: L. pneumophila

Substance: PF-326 (VIVGNLGAQKEKRNDTPISAKKDIMGDKTVRVRADLHH; Peptide with targeting and/or antimicrobial activity)
- Target(s) [2]: S. mutans; also recorded: E. coli

Substance: PF-C271 (FFPSYYSIIITYF; Peptide with targeting and/or antimicrobial activity)
- Target(s) (microorganism bound by the targeting peptide) [4]: A. naeslundii; also recorded: F. nucleatum; also recorded: P. gingivalis; also recorded: S. mutans; also recorded: T. denticola

Substance: TT-308 (GLVIIPNLIALIILFSQVRQQTKDYFSNPKLSSR; Peptide with targeting and/or antimicrobial activity)
- Target(s) [3]: F. nucleatum

Substance: 1T-258 (TINIDDKVLDYLKKINSKAITIDLIGCAS; Peptide with targeting and/or antimicrobial activity) [Peptide 1T-258]
- Target(s) [3]: A. naeslundii; also recorded: F. nucleatum; also recorded: P. gingivalis; also recorded: T. denticola; also recorded: S. mitis; also recorded: S. mutans; also recorded: S. oralis

Substance: PF-232 (FDQLYALEREGKLDELLA; Peptide with targeting and/or antimicrobial activity)
- Target(s) [2]: S. epidermidis; also recorded: M. luteus

Substance: 1T-96 (VAGACAQPFGGQ; Peptide with targeting and/or antimicrobial activity) [Peptide 1T-96]
- Target(s) (microorganism bound by the targeting peptide) [1]: S. gordonii; also recorded: S. mitis; also recorded: S. mutans; also recorded: S. oralis; also recorded: S. sanguinis

Substance: PF-S004 (VLLNIFRTLLEFFSPSNAPGAEDVPLPDTQA; Peptide with targeting and/or antimicrobial activity)
- Target(s) (microorganism bound by the targeting peptide) [4]: S. epidermidis and MRSA and C. jeikeium

Substance: PF-791 (IFLTTQNTDYSEHNAA; Peptide with targeting and/or antimicrobial activity)
- Target(s) (microorganism bound by the targeting peptide) [4]: S. mutans

Substance: 1T-36 (VYRHLRFIDGKLVEIRLERK; Peptide with targeting and/or antimicrobial activity) [Peptide 1T-36]
- Target(s) (microorganism bound by the targeting peptide) [1]: S. aureus; also recorded: S. epidermidis; also recorded: C. jeikeium; also recorded: C. xerosis; also recorded: C. striatum; also recorded: P. aeruginosa

Substance: PF-676 (AEYRGL; Peptide with targeting and/or antimicrobial activity)
- Target(s) (microorganism bound by the targeting peptide) [4]: S. mutans; also recorded: E. coli

Substance: PF-669 (RADRIESYPADGDRVITLWRNPYR; Peptide with targeting and/or antimicrobial activity)
- Target(s) (microorganism bound by the targeting peptide) [4]: Mycobacteria spp

Substance: PF-195 (EMAEGSADDRLRKTPRDC; Peptide with targeting and/or antimicrobial activity)
- Target(s) [2]: S. epidermidis; also recorded: M. luteus; also recorded: E. faecalis; also recorded: C. jeikeium

Substance: 1T-121 (FAKETGFGIGGAQEGWWIIADIYGPNPF; Peptide with targeting and/or antimicrobial activity) [Peptide 1T-121]
- Target(s) (microorganism bound by the targeting peptide) [1]: S. gordonii; also recorded: S. mitis; also recorded: S. mutans; also recorded: S. oralis; also recorded: S. salivarious; also recorded: S. sanguinis

Substance: 1T-108 (WGPLGPERPLW; Peptide with targeting and/or antimicrobial activity) [Peptide 1T-108]
- Target(s) (microorganism bound by the targeting peptide) [1]: S. gordonii; also recorded: S. mitis; also recorded: S. mutans; also recorded: S. oralis; also recorded: S. salivarious; also recorded: S. sanguinis

Substance: 1T-110 (LAAKTAVCVGRAFM; Peptide with targeting and/or antimicrobial activity) [Peptide 1T-110]
- Target(s) (microorganism bound by the targeting peptide) [1]: A. naeslundii; also recorded: P. gingivalis; also recorded: S. epidermidis; also recorded: S. gordonii; also recorded: S. mitis; also recorded: S. mutans; also recorded: S. oralis; also recorded: S. sanguinis

Substance: PF-364 (LVNGIKI; Peptide with targeting and/or antimicrobial activity)
- Target(s) [2]: S. epidermidis; also recorded: B. fragilis; also recorded: P. aeruginosa; also recorded: C. jeikeium; also recorded: C. jejuni

Substance: MLTSRKKRLKKIVEEQNKKDESI [PF-336]
- Target(s) [2]: S. mutans; also recorded: E. coli
